# Test system: 521955-158-R6-J3-PDC complex spheroid growth, % test/control
# Assay: Anticancer human tumor 521955-158-R6-J3-PDC patient-derived pancreatic carcinoma cell line growth inhibition [Asc]
# Conditions: for IC50: curve of first compound; for viability, T/C: stronger effect = lower value
# Method in brief: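 Tumor cells were grown as complex spheroids with human endothelial cells (HUVEC) and human mesenchymal stem cells as stroma. Agents were tested alone and in combination, in half-log steps down from the clinical Cmax, or from 10 microM where Cmax was unknown.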
# [1] = second compound 0.00316 µM, first compound 0.0316 µM
# [2] = second compound 0.00316 µM, first compound 0.1 µM
# [3] = second compound 0.01 µM, first compound 0.0316 µM
# [4] = second compound 0.01 µM, first compound 0.1 µM
# [5] = second compound 0.0316 µM, first compound 0.0316 µM
# [6] = second compound 0.0316 µM, first compound 0.1 µM
# [7] = second compound 0.1 µM, first compound 0.0316 µM
# [8] = second compound 0.1 µM, first compound 0.1 µM
# [9] = second compound 0.316 µM, first compound 0.0316 µM
# [10] = second compound 0.316 µM, first compound 0.1 µM
# [11] = second compound 1 µM, first compound 0.0316 µM
# [12] = second compound 1 µM, first compound 0.1 µM
# 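Further: spheroids exposed to compounds for 7 days.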
# 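Wherever viability, T/C is given: 100% = DMSO vehicle control wells.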
smiles,measurement,setting,value
C=CC(=O)N1CCN(c2nc(=O)n(-c3c(C)ccnc3C(C)C)c3nc(-c4c(O)cccc4F)c(F)cc23)C(C)C1 (stereo unspecified) + CNC(C)C(=O)NC1CN(S(=O)(=O)c2cccc(S(=O)(=O)N3CCC4CCC(C(=O)NC(c5ccccc5)c5ccccc5)N4C(=O)C(NC(=O)C(C)NC)C3)c2)CCC2CCC(C(=O)NC(c3ccccc3)c3ccccc3)N2C1=O,IC50,second compound 0.00316 µM,> 10000 nM
same,IC50,second compound 0.01 µM,> 10000 nM
same,IC50,second compound 0.0316 µM,> 10000 nM
same,IC50,second compound 0.1 µM,> 10000 nM
same,IC50,second compound 0.316 µM,> 10000 nM
same,IC50,second compound 1 µM,> 10000 nM
same,"viability, T/C",[1],98.2%
same,"viability, T/C",[2],110%
same,"viability, T/C","second compound 0.00316 µM, first compound 0.316 µM",116%
same,"viability, T/C","second compound 0.00316 µM, first compound 1 µM",121%
same,"viability, T/C","second compound 0.00316 µM, first compound 3.16 µM",98.8%
same,"viability, T/C","second compound 0.00316 µM, first compound 10 µM",80.4%
same,"viability, T/C",[3],121%
same,"viability, T/C",[4],85.3%
same,"viability, T/C","second compound 0.01 µM, first compound 0.316 µM",89.8%
same,"viability, T/C","second compound 0.01 µM, first compound 1 µM",94.9%
same,"viability, T/C","second compound 0.01 µM, first compound 3.16 µM",105%
same,"viability, T/C","second compound 0.01 µM, first compound 10 µM",81.3%
same,"viability, T/C",[5],95.2%
same,"viability, T/C",[6],76.5%
same,"viability, T/C","second compound 0.0316 µM, first compound 0.316 µM",108%
same,"viability, T/C","second compound 0.0316 µM, first compound 1 µM",95.1%
same,"viability, T/C","second compound 0.0316 µM, first compound 3.16 µM",104%
same,"viability, T/C","second compound 0.0316 µM, first compound 10 µM",70.8%
same,"viability, T/C",[7],92.2%
same,"viability, T/C",[8],78.7%
same,"viability, T/C","second compound 0.1 µM, first compound 0.316 µM",88%
same,"viability, T/C","second compound 0.1 µM, first compound 1 µM",108%
same,"viability, T/C","second compound 0.1 µM, first compound 3.16 µM",93%
same,"viability, T/C","second compound 0.1 µM, first compound 10 µM",66.7%
same,"viability, T/C",[9],89.7%
same,"viability, T/C",[10],91.6%
same,"viability, T/C","second compound 0.316 µM, first compound 0.316 µM",79.2%
same,"viability, T/C","second compound 0.316 µM, first compound 1 µM",107%
same,"viability, T/C","second compound 0.316 µM, first compound 3.16 µM",100%
same,"viability, T/C","second compound 0.316 µM, first compound 10 µM",84.2%
same,"viability, T/C",[11],81.4%
same,"viability, T/C",[12],82.5%
same,"viability, T/C","second compound 1 µM, first compound 0.316 µM",89.5%
same,"viability, T/C","second compound 1 µM, first compound 1 µM",88.7%
same,"viability, T/C","second compound 1 µM, first compound 3.16 µM",94.6%
same,"viability, T/C","second compound 1 µM, first compound 10 µM",83.5%
C#Cc1c(F)ccc2cc(O)cc(-c3ncc4c(N5CC6CCC(C5)N6)nc(OCC56CCCN5CC(F)C6)nc4c3F)c12 (stereo unspecified) + CCN1C(C(=O)NC23CCC(C(=O)O)(CC2)CC3)C(c2cccc(Cl)c2F)C2(C(=O)Nc3cc(Cl)ccc32)C12CCCCC2,IC50,second compound 0.00949 µM,518 nM
same,IC50,second compound 0.03 µM,329 nM
same,IC50,second compound 0.0949 µM,214 nM
same,IC50,second compound 0.3 µM,223 nM
same,IC50,second compound 0.949 µM,903 nM
same,IC50,second compound 3 µM,< 31.6 nM
same,"viability, T/C","second compound 0.00949 µM, first compound 0.0316 µM",76.9%
same,"viability, T/C","second compound 0.00949 µM, first compound 0.1 µM",60.5%
same,"viability, T/C","second compound 0.00949 µM, first compound 0.316 µM",50.2%
same,"viability, T/C","second compound 0.00949 µM, first compound 1 µM",49.1%
same,"viability, T/C","second compound 0.00949 µM, first compound 3.16 µM",39.3%
same,"viability, T/C","second compound 0.00949 µM, first compound 10 µM",28.2%
same,"viability, T/C","second compound 0.03 µM, first compound 0.0316 µM",72.2%
same,"viability, T/C","second compound 0.03 µM, first compound 0.1 µM",58%
same,"viability, T/C","second compound 0.03 µM, first compound 0.316 µM",47.1%
same,"viability, T/C","second compound 0.03 µM, first compound 1 µM",45.4%
same,"viability, T/C","second compound 0.03 µM, first compound 3.16 µM",41.4%
same,"viability, T/C","second compound 0.03 µM, first compound 10 µM",31.7%
same,"viability, T/C","second compound 0.0949 µM, first compound 0.0316 µM",81.6%
same,"viability, T/C","second compound 0.0949 µM, first compound 0.1 µM",55.8%
same,"viability, T/C","second compound 0.0949 µM, first compound 0.316 µM",46.5%
same,"viability, T/C","second compound 0.0949 µM, first compound 1 µM",40.2%
same,"viability, T/C","second compound 0.0949 µM, first compound 3.16 µM",43.6%
same,"viability, T/C","second compound 0.0949 µM, first compound 10 µM",30.3%
same,"viability, T/C","second compound 0.3 µM, first compound 0.0316 µM",72.1%
same,"viability, T/C","second compound 0.3 µM, first compound 0.1 µM",65.9%
same,"viability, T/C","second compound 0.3 µM, first compound 0.316 µM",42.4%
same,"viability, T/C","second compound 0.3 µM, first compound 1 µM",40.4%
same,"viability, T/C","second compound 0.3 µM, first compound 3.16 µM",39.2%
same,"viability, T/C","second compound 0.3 µM, first compound 10 µM",29.3%
same,"viability, T/C","second compound 0.949 µM, first compound 0.0316 µM",68.3%
same,"viability, T/C","second compound 0.949 µM, first compound 0.1 µM",66%
same,"viability, T/C","second compound 0.949 µM, first compound 0.316 µM",51%
same,"viability, T/C","second compound 0.949 µM, first compound 1 µM",53%
same,"viability, T/C","second compound 0.949 µM, first compound 3.16 µM",41.7%
same,"viability, T/C","second compound 0.949 µM, first compound 10 µM",34.2%
same,"viability, T/C","second compound 3 µM, first compound 0.0316 µM",57.9%
same,"viability, T/C","second compound 3 µM, first compound 0.1 µM",48.4%
same,"viability, T/C","second compound 3 µM, first compound 0.316 µM",51%
same,"viability, T/C","second compound 3 µM, first compound 1 µM",41.3%
same,"viability, T/C","second compound 3 µM, first compound 3.16 µM",50.4%
same,"viability, T/C","second compound 3 µM, first compound 10 µM",25.7%
Cn1ncnc1[C@H]1c2n[nH]c(=O)c3cc(F)cc(c23)N[C@@H]1c1ccc(F)cc1 + CNC(C)C(=O)NC1CN(S(=O)(=O)c2cccc(S(=O)(=O)N3CCC4CCC(C(=O)NC(c5ccccc5)c5ccccc5)N4C(=O)C(NC(=O)C(C)NC)C3)c2)CCC2CCC(C(=O)NC(c3ccccc3)c3ccccc3)N2C1=O,IC50,second compound 0.00316 µM,> 100 nM
same,IC50,second compound 0.01 µM,> 100 nM
same,IC50,second compound 0.0316 µM,> 100 nM
same,IC50,second compound 0.1 µM,> 100 nM
same,IC50,second compound 0.316 µM,> 100 nM
same,IC50,second compound 1 µM,> 100 nM
same,"viability, T/C","second compound 0.00316 µM, first compound 0.000316 µM",188%
same,"viability, T/C","second compound 0.00316 µM, first compound 0.001 µM",151%
same,"viability, T/C","second compound 0.00316 µM, first compound 0.00316 µM",151%
same,"viability, T/C","second compound 0.00316 µM, first compound 0.01 µM",159%
same,"viability, T/C",[1],163%
same,"viability, T/C",[2],140%
same,"viability, T/C","second compound 0.01 µM, first compound 0.000316 µM",154%
same,"viability, T/C","second compound 0.01 µM, first compound 0.001 µM",171%
same,"viability, T/C","second compound 0.01 µM, first compound 0.00316 µM",142%
same,"viability, T/C","second compound 0.01 µM, first compound 0.01 µM",146%
same,"viability, T/C",[3],153%
same,"viability, T/C",[4],161%
same,"viability, T/C","second compound 0.0316 µM, first compound 0.000316 µM",96.4%
same,"viability, T/C","second compound 0.0316 µM, first compound 0.001 µM",79.9%
same,"viability, T/C","second compound 0.0316 µM, first compound 0.00316 µM",93.6%
same,"viability, T/C","second compound 0.0316 µM, first compound 0.01 µM",74.6%
same,"viability, T/C",[5],76.9%
same,"viability, T/C",[6],92.1%
same,"viability, T/C","second compound 0.1 µM, first compound 0.000316 µM",93.2%
same,"viability, T/C","second compound 0.1 µM, first compound 0.001 µM",79.2%
same,"viability, T/C","second compound 0.1 µM, first compound 0.00316 µM",85.6%
same,"viability, T/C","second compound 0.1 µM, first compound 0.01 µM",83%
same,"viability, T/C",[7],87.4%
same,"viability, T/C",[8],78.2%
same,"viability, T/C","second compound 0.316 µM, first compound 0.000316 µM",84.8%
same,"viability, T/C","second compound 0.316 µM, first compound 0.001 µM",72.6%
same,"viability, T/C","second compound 0.316 µM, first compound 0.00316 µM",83.3%
same,"viability, T/C","second compound 0.316 µM, first compound 0.01 µM",87.1%
same,"viability, T/C",[9],89.3%
same,"viability, T/C",[10],84.1%
same,"viability, T/C","second compound 1 µM, first compound 0.000316 µM",73.3%
same,"viability, T/C","second compound 1 µM, first compound 0.001 µM",74.9%
same,"viability, T/C","second compound 1 µM, first compound 0.00316 µM",83.9%
same,"viability, T/C","second compound 1 µM, first compound 0.01 µM",74.7%
same,"viability, T/C",[11],87.8%
same,"viability, T/C",[12],83.2%

# Source: PubChem BioAssay AID1963451 (Molecular Pharmacology Branch, DTP, NCI, 2024)
